# According to a melting point compilation (Tetko et al.; mined from patent text by program, amines drawn as free bases though some values may be those of a salt):
row,Structure (SMILES),melting point [°C]
1,COC(=O)c1cc(C(=O)NCCF)c2cc(Cc3ccc(F)cc3)cnc2c1O,216 to 217
2,O=C(Nc1ccc(N2CCNCC2)cc1)c1ccccc1-c1ccc(C(F)(F)F)cc1,119 to 124
3,COC(CN(C)C(=O)Nc1cc(C(C)(C)C)on1)OC,80 to 84
4,COC(=S)C(Cl)=C(C)Cl,27 to 30
5,CN(c1cc(OCC(N)=O)cc2cc(C3=NCC(CN4CCS(=O)CC4)S3)[nH]c12)S(=O)(=O)c1ccccn1 (configuration not stated),160 to 161
6,CCN(CCCc1ccccc1)[C@H]1CC[C@H](c2ccc(O)cc2)CC1,163 to 166
7,CCCCCN1C(=O)C2(COc3cc4c(cc32)OCO4)c2c(Cl)ccc(Cl)c21 (configuration not stated),106 to 108
8,CCCc1c(OCCCSc2ccc(CC(=O)O)cc2Cl)ccc2c(-c3ccccc3)coc12,143
9,CCN(CC)C(=O)COc1ccc(CCC(=O)NS(=O)(=O)CCC(C)C)c(Oc2ncc(C(F)(F)F)cc2Cl)c1,123 to 125
10,CC(C)(C)OC(=O)N1CCN(S(=O)(=O)c2ccc(Br)s2)CC1,127
11,Cc1cc(SC(C)C)c(NC(=O)CCCCCCSc2nc3ccccc3[nH]2)c(SC(C)C)n1,118 to 121
12,N#CC1CN1Cc1ccc(C(=O)O)s1 (configuration not stated),108 to 111
13,COc1ccc(O)c(CNc2cccs2)c1,109 to 110
14,O=C(O)c1cc2cc(Cl)ccc2nc1NC(Cc1c[nH]c2cc(F)ccc12)C(=O)O (configuration not stated),170 to 174
15,O=C(O)c1ccc(COCc2csc3nc(C(=O)NCc4ccc(F)c(C(F)(F)F)c4)[nH]c(=O)c23)cc1,258 to 259
16,CCN1C(=O)c2ccc(C(F)(F)F)cc2S(=O)(=O)c2ccccc21,145 to 146
17,CCn1cc(-c2ccccc2)c(=O)c(-c2cccc(C(F)(F)F)c2)c1,98 to 100
18,Cc1cc(C2=NN(C(=O)OC(C)(C)C)[C@H](C)Cc3cc4c(cc32)OCO4)cc(C)c1[N+](=O)[O-],222 to 223
19,CN1CCC(NCc2ccccc2)(c2ccccc2)C(O)C1 (configuration not stated),162 to 164
20,CCOC(=O)NCCC(c1cc(F)ccc1F)S(=O)(=O)c1ccc(Cl)cc1 (configuration not stated),121 to 122
21,CCN1c2ncc(CNc3cccc([N+](=O)[O-])c3)cc2C(=O)N(C)c2ccc(Cl)nc21,171 to 172
22,O=C(O)c1cnc2n(c1=O)CCCCC2,117 to 119
23,COC(=O)C(Cl)=Cc1ccc(OC)cc1,68 to 70
24,CNC(=O)N1CCC(Oc2c(F)c(F)c(F)c(F)c2F)CC1,107 to 110

row,Structure (SMILES),melting point [°C]
1,COC(=O)c1cccc(OCC(=O)NN=C2C(=O)Nc3ccc(I)cc32)c1,237
2,C=C(C)C(=O)OCCCCCCN(C)c1ccc(C=Cc2ccc([N+](=O)[O-])cc2)cc1,109 to 111
3,C=CCNc1nc(N2CCCCC2)c2cc([N+](=O)[O-])ccc2n1,123 to 124
4,CCCc1nc2c(N)nc3ccccc3c2n1CC(C)(C)OCCS(C)(=O)=O,203 to 206
5,CCOC(=O)c1c(C)nn(-c2ccc(Br)cc2)c1C,71 to 73
6,O=C(Nc1cccc(CN2CCCCC2)c1)C1=Cc2cc(-c3ccccc3)ccc2CC1,152 to 153
7,O=c1ccc(S(=O)(=O)c2cc3cc(Cl)ccc3o2)n[nH]1,246 to 247
8,O=C(CS(=O)(=O)C(c1ccc(Cl)cc1)c1ccc(Cl)cc1)c1ccccn1,120 to 121
9,Nc1ccc2c(c1)C(=O)NC(C(Cl)(Cl)Cl)O2 (configuration not stated),172 to 174
10,NC(Cc1cc2nccnc2cc1CP(=O)(O)O)C(=O)O (configuration not stated),250
11,CC(C)NC(=N)NC1=NC(=O)C(=O)N1c1ccc(Cl)c(Cl)c1,244
12,OCCCc1cn(-c2ccc(F)cc2)c2ccc(Cl)cc12,67 to 69
13,COc1ccc2cc(-c3ccc(S(C)(=O)=O)cc3)ccc2n1,182 to 184
14,Cn1c(=O)c2c(nc(N3CCC(N)C3)n2Cc2ccccc2C#N)n(C)c1=O (configuration not stated),186 to 189
15,CCCCCC(=O)N1CCc2nc3ccccc3c(C)c2CC1,109
16,NC(=O)Cc1ccc(Nc2nc(OCC3CCCCC3)c3nc[nH]c3n2)cc1,234
17,CCOC(=O)c1cc2nc(C)n(Cc3ccccc3)c2[nH]1,193
18,COC(=O)c1ccc(Cc2c(Cl)n(C)c3ccc(CC(C)NC(=O)N(C)C)cc23)c(OC)c1 (configuration not stated),148
19,CCCC(Sc1cc(C(C)(C)C)c(O)c(C(C)(C)C)c1)C(=O)Nc1c(C)cccc1C (configuration not stated),137 to 140
20,CCC(C(=O)C(C)C(O)C(C)CCC1=C(C(=O)O)C(O)=C(C)CC1=[N+]=[N-])C1OC(CC)(C2CCC(O)(CC)C(C)O2)CC1C (configuration not stated),137 to 138
21,Cc1nc(-c2ccc(C(=O)N(C)c3ccc(Cl)cc3)cc2)sc1C(=O)O,210 to 212
22,COc1cc(-c2c(Cl)c(CCl)nc3sc4c(c23)CCN(Cc2ccccc2)C4)ccc1OC(C)C,173 to 174
23,CCSc1c(Nc2c(C)c(=O)c2=O)ccc2[nH]cc(CCCO)c12,119
24,NC(=O)c1ccc([N+](=O)[O-])cc1[N+](=O)[O-],202 to 204

row,Structure (SMILES),melting point [°C]
1,CSc1cc(-c2ccccc2)ccc1C1=NC(C)(C)CO1,93 to 95
2,COP(=O)(CN[C@@H](Cc1ccc(-c2ccccc2)cc1)C(=O)NCCC(=O)O)OC,122 to 123
3,c1ccc(COc2cc(OCc3ccccc3)c3ccncc3c2)cc1,113 to 115
4,C=Cc1c(F)c(F)cc(C(=O)O)c1F,108 to 110
5,OC1(c2cccs2)CCN(CCCc2nnc3n2CCCCC3)CC1,162 to 163
6,CC(=O)Nc1cccc(-c2ccnc3c(C#N)cnn23)c1,252 to 254
7,COC(=O)c1ccc(Cn2c(C(F)(F)F)nc3cc(C)c(C)cc32)cc1,150 to 152
8,O=C(O)c1ccc2c([N+](=O)[O-])c(O)c(O)cc2c1,> 310
9,CC(C)(C)n1nnc(N)n1,114 to 115
10,COC(=O)N[C@@H]1Cc2ccccc2N(OC)C1=O,117 to 119
11,O=CNNc1ccnc2c(NC(=O)c3c(Cl)cccc3Cl)cccc12,261 to 263
12,CCC1=CC=CC(CC)(c2ccncc2)C1c1c(OC(=O)C(C)(C)C)n2n(c1=O)CCOCC2 (configuration not stated),146 to 147
13,c1ccc(N2CCN(CCCCc3cccnc3)CC2)nc1,54 to 64
14,CCn1c(=O)c2c(ncn2CCCCC(C)=O)n(CC)c1=O,68 to 69
15,CSc1nc(CO)c(CO)n1C,119 to 120
16,CCOC(=O)c1sc(-n2ccc(OCc3ccc(F)cc3)cc2=O)nc1C,214 to 217
17,C#CCOC(=O)c1c(F)cccc1Oc1nc(OC)cc(OC)n1,49 to 50
18,CCn1c(=O)[nH]c(=O)c2nc(-c3ccc(/C=C/C(=O)O)cc3)[nH]c21,> 300
19,O=Cc1ccc2cccnc2c1,56
20,Cc1oc(-c2ccccc2)nc1COc1ccccc1CCl,103 to 104
21,CC(CN1CCCC1)N1c2ccccc2Sc2ccc(C(=O)NCc3cccc(Cl)c3)cc21 (racemic),80
22,COc1ccc2oc(C(=O)NCc3ccccc3)c(OC(C)C)c2c1,68 to 69
23,Cc1cc(C)c(/C=C2\C(=O)N(COC(=O)CCC(=O)O)c3ccccc32)[nH]1,160 to 163
24,CC(=O)Nc1nc(C)c(S(=O)(=O)NN2CCN(C)CC2)s1,245
